Laboratory results as given in PubChem BioAssay (NCI).
Several values for one entry are separate records, joined by “and”; a condition that tells them apart may be missing. Equal values may be shown once.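 Following 48 hours of exposure in 96-well plates, responses at five concentrations were used to interpolate endpoints linearly. The concentration for 50% growth inhibition is given as GI50. TGI: concentration producing complete growth inhibition.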

Legend:
Assay in all cases: NCI tumour cell line growth inhibition, 48 h
[1] = test system: SK-OV-3 ovarian
[2] = test system: RPMI-8226 leukemia
[3] = test system: DLD-1 colon
[4] = test system: KM12 colon
[5] = test system: LXFL 529 NSCLC
[6] = test system: NCI-H460 lung
[7] = test system: OVCAR-4 ovarian
[8] = test system: XF 498 CNS
[9] = test system: SNB-78 CNS
[10] = test system: HS 578T breast
[11] = test system: BT-549 breast

SMILES | TGI [1] [µM] | TGI [2] [µM] | TGI [3] [µM] | TGI [4] | TGI [5] [µM] | TGI [6] [µM] | TGI [7] | TGI [8] [µM] | TGI [9] [µM] | GI50 [1] [nM] | GI50 [2] [nM] | GI50 [3] [nM] | GI50 [5] [nM] | TGI [10] [µM] | TGI [11] [µM]
O=c1cc(-c2ccccc2)[nH]c2c(F)ccc(F)c12 | > 100 | > 100 | > 100 | > 100 µM | > 100 | > 100 | > 100 µM |  |  |  |  |  |  |  | 
CCC(C)Cn1c(C)nc2c1C(=O)c1ccccc1C2=O (centres undefined) | > 100 |  | > 100 | > 100 µM | > 100 | 34.3 | > 100 µM | 56 | > 100 |  |  |  |  |  | 
CC1[C@@H]2C[C@@H]3O[C@@]34[C@H]3CCC5Cc6nc7c(nc6C[C@@]5(C)C3(O)CC(=O)[C@@]24CO[C@]12OC(C)(C)CC2O)CC1CC[C@@H]2C3=C[C@H]4O[C@@]5(O[C@@](C)(CO)C[C@@H]5O)C(C)[C@@]4(O)[C@]3(C)[C@@H](O)CC2[C@]1(C)C7 (some centres undefined) | 0.231 | > 3.52 | > 3.52 | 0.893 µM |  | 0.479 | > 3.52 µM | 0.0328 | 0.622 |  |  |  |  |  | 
CN(C)CC(C)(C)C(=O)/C=C/c1ccccc1 |  | 56.6 | 74.3 | 28.5 µM | 24.9 | 74.6 | 31.6 µM | 23.8 | 88.6 |  |  |  |  |  | 
COc1cccc2c1C(=O)c1c(O)c3c(c(O)c1C2=O)C[C@@](O)(C(=O)CO)CC3OC1CC(NCCCCC(OC(C)=O)OC(C)=O)C(O)C(C)O1 (some centres undefined) | > 1 | 0.00313 | 0.245 | 0.00774 µM and 0.022 µM |  | 0.319 | 0.00449 µM and 0.00985 µM |  | 0.00804 | 5.67 | 0.528 | 2.47 | 2.63 |  | 
CN(C)CCSc1nccc(-c2ccc(-c3ccnc(SCCN(C)C)n3)s2)n1 | 47.2 | 10.1 | 23 | 16 µM |  | 9.86 | 16.2 µM | 29.4 | 31 |  |  |  |  |  | 
Cc1cc(N)c2cc(NC(=O)CCCCCCCCC(=O)Nc3ccc4nc(C)cc(N)c4c3)ccc2n1 | > 100 | > 100 | > 100 | > 68.4 µM | > 100 | > 100 | > 100 µM | > 100 | > 100 |  |  |  |  |  | 
CCOC(=O)CCC1(C(=O)O[C@@H]2C[C@H](C)CC[C@H]2C(C)C)CCCCC1=O (some centres undefined) | > 100 | > 100 |  | > 100 µM |  | > 100 | > 100 µM |  |  |  |  |  |  | > 100 | > 100
O=C1CSC2=NC3=C(COC/C3=C\c3ccc(F)cc3)C(c3ccc(F)cc3)N12 (centres undefined) | > 100 | > 100 |  | > 100 µM |  | > 100 | > 100 µM |  |  |  |  |  |  | > 100 | > 100
C/C(=N/NC(=O)c1ccccc1Nc1ccccc1C(=O)N/N=C(\C)c1ccc(C)cc1)c1ccc(C)cc1 | > 100 | > 100 |  | > 100 µM |  | > 100 | > 100 µM |  |  |  |  |  |  | > 100 | > 100
Cc1cnc2[nH]c(-c3sccc3C)cc(=O)c2c1 | > 100 | > 100 |  | > 51.3 µM |  | > 100 | > 100 µM |  |  |  |  |  |  | 6.01 | > 100
COc1ccc(C2=C(N)c3cc(OC)ccc3C2=O)cc1 | > 100 | > 100 |  | > 100 µM |  | > 100 | > 100 µM |  |  |  |  |  |  | 69.9 | > 100
C[S+](C)C1(c2ccccc2)C(=O)c2ccccc2C1=O | > 100 | > 100 | > 100 | > 100 µM | > 100 | > 100 | > 100 µM | 94 | > 100 |  |  |  |  | 60.8 | 35.6
Cc1cc(C)c(N)c(CO)c1 | > 100 | > 100 |  | > 100 µM |  | > 100 | > 100 µM |  |  |  |  |  |  | > 100 | > 100
COC1OC(=O)C(OC)C(OC)C1OC (centres undefined) | > 100 | > 100 |  | > 100 µM |  | > 100 | > 100 µM |  |  |  |  |  |  | > 100 | > 100
